Assay results reported in publication PMC12543159, “Characterization and ligand binding properties of a fatty acid- and retinol- binding protein (Hp-FAR-2) from Heligmosomoides polygyrus” (PLOS Neglected Tropical Diseases, 2025).

Legend:
Assay type in all cases: binding
Hp-FAR-2 [1] = biological target: T1, Hp-FAR-2 (Heligmosomoides polygyrus, UniProt A0A183GLK6); assay: DAUDA displacement fluorescence competition ([…] and […])
T1 construct: mature Hp-FAR-2, amino acids 18–180, N-terminal 6-His-tag
T1 sequence (A0A183GLK6 entry or part of it): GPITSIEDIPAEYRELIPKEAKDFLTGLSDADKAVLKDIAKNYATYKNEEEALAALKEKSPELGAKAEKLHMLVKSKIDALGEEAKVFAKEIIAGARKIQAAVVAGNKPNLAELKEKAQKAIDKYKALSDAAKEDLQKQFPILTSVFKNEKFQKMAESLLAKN

Hp-FAR-2 [2] = biological target: T1, Hp-FAR-2; assay: DAUDA displacement fluorescence competition ([…] excess, […])
Hp-FAR-2 [3] = biological target: T1, Hp-FAR-2; assay: retinol fluorescence titration with purified Hp-FAR-2
Hp-FAR-2 [4] = biological target: T1, Hp-FAR-2; assay: fluorescence titration of DAUDA with purified Hp-FAR-2 (blue shift)

| SMILES | DAUDA displacement fluorescence competition (1:1 and 1:10) (Hp-FAR-2 [1]) | DAUDA displacement fluorescence competition (10-fold excess, 10 μM) (Hp-FAR-2 [2]) | also measured |
| --- | --- | --- | --- |
| CC/C=C\C/C=C\C/C=C\C/C=C\C/C=C\C/C=C\CCC(=O)O [DHA, docosahexaenoic acid] | Oleic acid, linoleic acid, and docosahexaenoic acid all significantly displaced DAUDA | – | – |
| CCCCC/C=C\C/C=C\C/C=C\C/C=C\CCCC(=O)O [AA, arachidonic acid] | – | All fatty acids except α-linolenic acid significantly displaced DAUDA compared to DAUDA alone | – |
| CC/C=C\C/C=C\C/C=C\C/C=C\C/C=C\CCCC(=O)O [EPA, eicosapentaenoic acid] | – | All fatty acids except α-linolenic acid significantly displaced DAUDA compared to DAUDA alone | – |
| CCCCC/C=C\C/C=C\CCCCCCCC(=O)O [LA, linoleic acid] | Oleic acid, linoleic acid, and docosahexaenoic acid all significantly displaced DAUDA | – | – |
| CC1=C(/C=C/C(C)=C/C=C/C(C)=C/CO)C(C)(C)CCC1 [retinol] | – | – | Kd (Hp-FAR-2 [3]): 3.24 µM |
| CCCCCCCC/C=C\CCCCCCCC(=O)O [OA, oleic acid] | Oleic acid, linoleic acid, and docosahexaenoic acid all significantly displaced DAUDA | – | – |
| CCCCCCCCCCCCCCCC(=O)O [PA, palmitic acid] | – | All fatty acids except α-linolenic acid significantly displaced DAUDA compared to DAUDA alone | – |
| CN(C)c1cccc2c(S(=O)(=O)NCCCCCCCCCCC(=O)O)cccc12 [DAUDA] | – | – | Kd (Hp-FAR-2 [4]): 3.16 µM |
